Data as given in ChEMBL document CHEMBL3621061 (J Med Chem, 2015).

Columns and labels:
[1] = Displacement of [3H]histamine from dog histamine H4 receptor expressed in HEK293T cells; format: cell-based, Canis lupus familiaris; settings: hek-293t
[2] = Displacement of [3H]histamine from monkey histamine H4 receptor expressed in HEK293T cells; format: cell-based, Macaca mulatta; settings: hek-293t
Histamine H4 receptor = target: T1, Histamine H4 receptor (Cavia porcellus, UniProt Q91ZY3)
T1 sequence (Q91ZY3 whole entry): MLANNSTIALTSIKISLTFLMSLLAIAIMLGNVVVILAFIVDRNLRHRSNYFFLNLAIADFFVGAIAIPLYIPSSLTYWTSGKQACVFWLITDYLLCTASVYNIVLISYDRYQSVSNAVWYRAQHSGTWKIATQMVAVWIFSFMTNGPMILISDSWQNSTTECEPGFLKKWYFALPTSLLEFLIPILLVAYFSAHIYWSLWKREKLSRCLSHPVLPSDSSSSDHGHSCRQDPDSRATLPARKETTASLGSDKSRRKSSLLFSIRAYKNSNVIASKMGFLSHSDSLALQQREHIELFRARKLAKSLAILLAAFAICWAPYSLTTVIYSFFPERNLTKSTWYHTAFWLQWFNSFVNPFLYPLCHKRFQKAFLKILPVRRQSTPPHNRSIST

[3] = Displacement of [3H]histamine from dog recombinant histamine H4 receptor; parameters: species or system Canis lupus familiaris
[4] = Displacement of [3H]histamine from monkey recombinant histamine H4 receptor; parameters: species or system Macaca mulatta

CN[C@@H]1CCN(c2cc(NCC3CC3)nc(N)n2)C1 [ADRIFORANT]
pKi [1]: 5.79
pKi [2]: 7.81

NCCc1c[nH]cn1 [HISTAMINE]
Ki (Histamine H4 receptor): 6 nM

CC(C)c1cc(N2CC[C@@H](N)C2)nc(N)n1 [JNJ-39758979]
Ki [3]: > 10000 nM
Ki [4]: 25 nM
